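All cell lines were grown in 96-well plates and treated with compound for 48 hours. Here, GI50 denotes the concentration required for 50% inhibition of growth.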 Activity calls are given as the source filed them. Rule as the data show it: active = GI50 up to about 1.1 µM and inactive = higher.
Experiments:
Assay in all cases: inhibition of tumour cell growth, NCI panel, 48 h
[1] = test system: NCI-H460
[2] = test system: OVCAR-5
[3] = test system: SF-268
[4] = test system: SK-MEL-5
[5] = test system: SK-MEL-28
[6] = test system: RPMI-8226
[7] = test system: SF-295
[8] = test system: DLD-1
[9] = test system: NCI-H23
[10] = test system: SN12C
[11] = test system: K562
[12] = test system: OVCAR-4
[13] = test system: BT-549
[14] = test system: DMS-114
[15] = test system: SNB-19
[16] = test system: HCC 2998
[17] = test system: A549
[18] = test system: DMS-273
[19] = test system: DU-145
[20] = test system: UO-31

Row | Compound | GI50 [1] | GI50 [2] | GI50 [3] | GI50 [4] | GI50 [5] | GI50 [6] | GI50 [7] | GI50 [8] | GI50 [9] | GI50 [10] | GI50 [11] | GI50 [12] | GI50 [13] | GI50 [14] | GI50 [15] | GI50 [16] | GI50 [17] | GI50 [18] | GI50 [19] | GI50 [20]
1 | COC(=O)N/N=C(/CC1(O)C(=O)Nc2ccc([N+](=O)[O-])cc21)c1ccccc1 (stereo not given) | 63.8 µM (inactive) | > 79.6 µM (inactive) | 45.4 µM (inactive) | 23.9 µM (inactive) | 23.2 µM (inactive) | 44.6 µM (inactive) | 17.5 µM (inactive) | 46.7 µM (inactive) | 21.3 µM (inactive) | > 74 µM (inactive) | 40.7 µM (inactive) | 47.3 µM (inactive) | 38.5 µM (inactive) | 41.9 µM (inactive) | 38.9 µM (inactive) | 67.1 µM (inactive) | 63.1 µM (inactive) | 67.8 µM (inactive) | > 100 µM (inactive) | 40.9 µM (inactive)
2 | O=C(NC(=O)c1ccccc1[N+](=O)[O-])Nc1ccc(Oc2ncc(Br)cn2)c(Cl)c1 | 0.0252 µM (active) | 0.0207 µM (active) | 0.0478 µM (active) | 0.0224 µM (active) | 0.0286 µM (active) | 0.0256 µM (active) | 0.0137 µM (active) | 0.0148 µM (active) | 0.0389 µM (active) | 0.0398 µM (active) | 0.0194 µM (active) | 0.0284 µM (active) | 0.0703 µM (active) | < 0.0184 µM (active) | 0.0278 µM (active) | 0.0875 µM (active) | 0.0428 µM (active) | 0.0165 µM (active) | 0.0318 µM (active) | 0.0281 µM (active)

Source: ChEMBL document CHEMBL1201862, “PubChem BioAssay data set” (2004)
